The results in this text go back to ChEMBL document CHEMBL4680273, “Teixobactin: A Paving Stone toward a New Class of Antibiotics?” (2020).

Values after ≈ are worked out from the molar mass of the structure shown.

For the first assay, the system named is Staphylococcus aureus. Nature of the assay: Antibacterial activity against methicillin resistant Staphylococcus aureus ATCC 33591 incubated for 24 hrs. The class given is functional.
Details: not given
`CC[C@H](C)[C@H](NC(=O)[C@@H](Cc1ccccc1)NC)C(=O)N[C@@H](CO)C(=O)N[C@H](CCC(N)=O)C(=O)N[C@@H](C(=O)N[C@H](C(=O)N[C@@H](CO)C(=O)N[C@H]1C(=O)N[C@@H](C)C(=O)N[C@H](C)C(=O)N[C@@H]([C@@H](C)CC)C(=O)O[C@H]1C)[C@@H](C)CC)[C@@H](C)CC` gave a minimum inhibitory concentration (MIC) of 32 µg/mL (≈ 27.6 µM).
Same read-out and setting: the same measure for `CC[C@H](C)[C@H](NC(=O)[C@@H](Cc1ccccc1)NC)C(=O)N[C@@H](C)C(=O)N[C@H](CCC(N)=O)C(=O)N[C@@H](C(=O)N[C@H](C(=O)N[C@@H](CO)C(=O)N[C@H]1C(=O)N[C@@H](C)C(=O)N[C@@H](CCCNC(=N)N)C(=O)N[C@@H]([C@@H](C)CC)C(=O)O[C@H]1C)[C@@H](C)CC)[C@@H](C)CC`: 1 µg/mL (≈ 0.814 µM); for `CC[C@H](C)[C@H](NC(=O)[C@@H](Cc1ccccc1)NC)C(=O)N[C@@H](CO)C(=O)N[C@H](C)C(=O)N[C@@H](C(=O)N[C@H](C(=O)N[C@@H](C)C(=O)N[C@H]1C(=O)N[C@@H](C)C(=O)N[C@@H](CCCNC(=N)N)C(=O)N[C@@H]([C@@H](C)CC)C(=O)O[C@H]1C)[C@@H](C)CC)[C@@H](C)CC`: 1 µg/mL (≈ 0.854 µM); for `CC[C@H](C)[C@H](NC(=O)[C@@H](Cc1ccccc1)NC)C(=O)N[C@@H](CO)C(=O)N[C@H](CCC(N)=O)C(=O)N[C@@H](C(=O)N[C@H](C(=O)N[C@@H](CO)C(=O)N[C@H]1C(=O)N[C@@H](C)C(=O)N[C@@H](C)C(=O)N[C@@H]([C@@H](C)CC)C(=O)O[C@H]1C)[C@@H](C)CC)[C@@H](C)CC`: 1 µg/mL (≈ 0.863 µM).

The next assay has as its system Staphylococcus aureus. Nature of the assay: Antibacterial activity against Staphylococcus aureus ATCC 29213 incubated for 16 hrs by UV/Visible absorbance method.
Details: not given
The class given is functional.
For `CC[C@H](C)[C@H](NC(=O)[C@@H](Cc1ccccc1)NC)C(=O)N[C@@H](CO)C(=O)N[C@H](CCC(N)=O)C(=O)N[C@@H](C(=O)N[C@H](C(=O)N[C@@H](CO)C(=O)N[C@H]1C(=O)N[C@@H](C)C(=O)N[C@@H](CCCNC(=N)N)CC(=O)N[C@@H]([C@@H](C)CC)CC(=O)O[C@H]1C)[C@@H](C)CC)[C@@H](C)CC`, the lowest concentration to inhibit growth (MIC) was 4 µg/mL (≈ 3.14 µM).
Same read-out and setting: the same measure for `CC[C@H](C)[C@@H]1NC(=O)[C@H](CCCNC(=N)N)NC(=O)[C@H](C)NC(=O)[C@@H](NC(=O)[C@H](CO)NC(=O)[C@@H](NC(=O)[C@H](NC(=O)[C@@H](CCC(N)=O)NC(=O)[C@H](CO)NC(=O)[C@@H](NC(=O)[C@@H](Cc2ccccc2)NC)[C@@H](C)CC)[C@@H](C)CC)[C@@H](C)CC)[C@H](C)NC1=O`: more than 32 µg/mL.
Consider `CC[C@H](C)[C@@H]1NC(=O)[C@H](CCCNC(=N)N)NC(=O)[C@H](C)NC(=O)[C@H](NC(=O)[C@H](CO)NC(=O)[C@@H](NC(=O)[C@H](NC(=O)[C@@H](CCC(N)=O)NC(=O)[C@H](CO)NC(=O)[C@@H](NC(=O)[C@@H](Cc2ccccc2)NC)[C@@H](C)CC)[C@@H](C)CC)[C@@H](C)CC)[C@@H](C)NC1=O`, for which the MIC was more than 32 µg/mL.
`CC[C@H](C)[C@H](NC(=O)[C@@H](Cc1ccccc1)NC)C(=O)N[C@@H](CO)C(=O)N[C@H](CCC(N)=O)C(=O)N[C@@H](C(=O)N[C@H](C(=O)N[C@@H](CO)C(=O)N[C@H]1C(=O)N[C@@H](C)CC(=O)N[C@@H](CCCNC(=N)N)CC(=O)N[C@@H]([C@@H](C)CC)CC(=O)O[C@H]1C)[C@@H](C)CC)[C@@H](C)CC` returned a minimal inhibitory concentration (MIC) of 16 µg/mL (≈ 12.4 µM).
The same measure, in the same setting: the same measure for `CC[C@H](C)[C@H](NC(=O)[C@@H](Cc1ccccc1)NC)C(=O)N[C@@H](CO)C(=O)N[C@H](CCC(N)=O)C(=O)N[C@@H](C(=O)N[C@H](C(=O)N[C@@H](CO)C(=O)N[C@H]1C(=O)N[C@@H](C)C(=O)N[C@@H](CCCNC(=N)N)C(=O)N[C@@H]([C@@H](C)CC)CC(=O)O[C@H]1C)[C@@H](C)CC)[C@@H](C)CC`: 4 µg/mL (≈ 3.18 µM); for `CC[C@H](C)[C@H](NC(=O)[C@@H](Cc1ccccc1)NC)C(=O)N[C@@H](CO)C(=O)N[C@H](CCC(N)=O)C(=O)N[C@@H](C(=O)N[C@H](C(=O)N[C@@H](CO)C(=O)N[C@H]1C(=O)N[C@@H](C)CC(=O)N[C@@H](CCCNC(=N)N)CC(=O)N[C@@H]([C@@H](C)CC)C(=O)O[C@H]1C)[C@@H](C)CC)[C@@H](C)CC`: more than 32 µg/mL.
Still for that read-out and setting: the same measure for `CC[C@H](C)[C@@H]1NC(=O)[C@H](CCCNC(=N)N)NC(=O)[C@H](C)NC(=O)[C@@H](NC(=O)[C@H](CO)NC(=O)[C@@H](NC(=O)[C@H](NC(=O)[C@@H](CCC(N)=O)NC(=O)[C@H](CO)NC(=O)[C@@H](NC(=O)[C@@H](Cc2ccccc2)NC)[C@@H](C)CC)[C@@H](C)CC)[C@@H](C)CC)[C@@H](C)NC1=O`: more than 32 µg/mL; for `CC[C@H](C)[C@H](NC(=O)[C@@H](Cc1ccccc1)NC)C(=O)N[C@@H](CO)C(=O)N[C@H](CCC(N)=O)C(=O)N[C@@H](C(=O)N[C@H](C(=O)N[C@@H](CO)C(=O)N[C@H]1C(=O)N[C@@H](C)C(=O)N[C@@H](CCCNC(=N)N)CC(=O)N[C@@H]([C@@H](C)CC)C(=O)O[C@H]1C)[C@@H](C)CC)[C@@H](C)CC`: 8 µg/mL (≈ 6.36 µM).
Same read-out and setting: the same measure for `CC[C@H](C)[C@H](NC(=O)[C@@H](Cc1ccccc1)NC)C(=O)N[C@@H](CO)C(=O)N[C@H](CCC(N)=O)C(=O)N[C@@H](C(=O)N[C@H](C(=O)N[C@@H](CO)C(=O)N[C@H]1C(=O)N[C@@H](C)C(=O)N[C@@H](C)C(=O)N[C@@H]([C@@H](C)CC)C(=O)O[C@H]1C)[C@@H](C)CC)[C@@H](C)CC`: 1 µg/mL (≈ 0.863 µM); for `CC[C@H](C)[C@H](NC(=O)[C@@H](Cc1ccccc1)NC)C(=O)N[C@@H](CO)C(=O)N[C@H](CCC(N)=O)C(=O)N[C@@H](C(=O)N[C@H](C(=O)N[C@@H](CO)C(=O)N[C@H]1C(=O)N[C@@H](C)CC(=O)N[C@@H](CCCNC(=N)N)C(=O)N[C@@H]([C@@H](C)CC)CC(=O)O[C@H]1C)[C@@H](C)CC)[C@@H](C)CC`: 32 µg/mL (≈ 25.1 µM); for `CC[C@H](C)[C@H](NC(=O)[C@@H](Cc1ccccc1)NC)C(=O)N[C@@H](CO)C(=O)N[C@H](CCC(N)=O)C(=O)N[C@@H](C(=O)N(C)[C@H](C(=O)N[C@@H](CO)C(=O)N[C@H]1C(=O)N[C@@H](C)CC(=O)N[C@@H](CCCNC(=N)N)C(=O)N[C@@H]([C@@H](C)CC)C(=O)O[C@H]1C)[C@@H](C)CC)[C@@H](C)CC`: 32 µg/mL (≈ 25.1 µM).
`CC[C@H](C)[C@@H]1NC(=O)[C@H](CCCNC(=N)N)NC(=O)[C@H](C)NC(=O)[C@H](NC(=O)[C@H](CO)NC(=O)[C@@H](NC(=O)[C@H](NC(=O)[C@@H](CCC(N)=O)NC(=O)[C@H](CO)NC(=O)[C@@H](NC(=O)[C@@H](Cc2ccccc2)NC)[C@@H](C)CC)[C@@H](C)CC)[C@@H](C)CC)[C@H](C)NC1=O` returned a minimal inhibitory concentration (MIC) of 1 µg/mL (≈ 0.804 µM).

Another assay relates to Staphylococcus aureus. Nature of the assay: Antibacterial activity against Staphylococcus aureus SH1000 incubated for 24 hrs by CLSI-broth microdilution method. It counts as functional. The following applies: Staphylococcus aureus, SH1000, read-out: MIC.
As to `CC[C@H](C)[C@H](NC(=O)[C@@H](Cc1ccccc1)NC)C(=O)N[C@@H](CO)C(=O)N[C@H](CCC(N)=O)C(=O)N[C@@H](C(=O)N[C@H](C(=O)N[C@@H](CO)C(=O)N[C@H]1C(=O)N[C@@H](C)C(=O)N[C@@H](CCCNC(=N)N)C(=O)NC(CCCC(F)(F)F)C(=O)O[C@H]1C)[C@@H](C)CC)[C@@H](C)CC` (stereo not given in full), the MIC came to 32 µg/mL (≈ 24.6 µM).
On the same count and under the same terms, the same measure for `CCCCC1NC(=O)[C@H](CCCNC(=N)NC)NC(=O)[C@H](C)NC(=O)[C@H](NC(=O)[C@H](CO)NC(=O)[C@@H](NC(=O)[C@H](NC(=O)[C@@H](CCC(N)=O)NC(=O)[C@H](CO)NC(=O)[C@@H](NC(=O)[C@@H](Cc2ccccc2)NC)[C@@H](C)CC)[C@@H](C)CC)[C@@H](C)CC)[C@H](C)OC1=O` (stereo not given in full): 4 µg/mL (≈ 3.18 µM); for `CC[C@H](C)[C@H](NC(=O)[C@@H](Cc1ccccc1)NC)C(=O)N[C@@H](CO)C(=O)N[C@H](CCC(N)=O)C(=O)N[C@@H](C(=O)N[C@H](C(=O)N[C@@H](CO)C(=O)N[C@H]1C(=O)N[C@@H](C)C(=O)N[C@@H](CCCNC(=N)N)C(=O)N[C@@H](C)C(=O)O[C@H]1C)[C@@H](C)CC)[C@@H](C)CC`: not below 32 µg/mL.
On the same count and under the same terms, the same measure for `C=CCCC1NC(=O)[C@H](CCCNC(=N)N)NC(=O)[C@H](C)NC(=O)[C@H](NC(=O)[C@H](CO)NC(=O)[C@@H](NC(=O)[C@H](NC(=O)[C@@H](CCC(N)=O)NC(=O)[C@H](CO)NC(=O)[C@@H](NC(=O)[C@@H](Cc2ccccc2)NC)[C@@H](C)CC)[C@@H](C)CC)[C@@H](C)CC)[C@H](C)OC1=O` (stereo not given in full): 32 µg/mL (≈ 25.8 µM).

Broadly, the MIC is the smallest concentration in the dilution series that meets the test's criterion for growth inhibition.
